{"source": "patent US10143748B2", "about": "“B-cell reduction using CD37-specific and CD20-specific binding molecules” (Emergent Product Development Seattle, LLC, priority 2005, dated 2018)", "key": {"[1]": {"tested_on": "Ramos cells", "experiment": "Annexin V/PI apoptosis analysis, Ramos", "type": "cell-based, human", "settings": "24 hours, TRU-016 10 μg/mL (unfractionated)", "method": "Experiments examining the effect of B cell targeted SMIPS on B cell line apoptosis were performed. Each SMIP was tested individually and then in combination. Samples were analyzed at both 24 and 48 hours after initiation of incubation reactions. […] In addition, 20 μg/mL goat anti-human IgG was added to reactions in order to cross link reagents on the cell surface. Cells were then stained with Annexin V-FITC and propidium iodide using the BD Pharmigen Apoptosis Detection Kit I (#556547), and processed according to kit instructions. Briefly, cells were washed twice with cold PBS and resuspended in “binding buffer” at 1×10^6 cells/mL. One hundred microliters of the cells in binding buffer were then stained with 5 μl of Annexin V-FITC and 5 μl of propidium iodide. The cells were gently vortexed and incubated in the dark at room temperature for 15 minutes. Four hundred microliters of binding buffer was then added to each sample. They were then read and analyzed on a FACsCalibur (Becton Dickinson) instrument using Cell Quest software (Becton Dickinson).\nSimilar data were obtained whether Ramos or BJAB cells were used as the binding targets in these assays."}, "[2]": {"tested_on": "CD19 and CD40 positive lymphocytes (B cells)", "experiment": "depletion of normal B cells from human PBMC cultures", "type": "cell-based", "settings": "1 μg/ml, 24 to 72 hours, FIG. 20C", "method": "Human PBMCs were isolated from whole blood by LSM density centrifugation. […] A portion of the incubation reaction was harvested at 48 hours and again at 72 hours after initiation of the experiment. PBMCs were washed and incubated with FITC anti-CD19, FITC anti-CD40, or FITC anti-CD3 for 45 minutes on ice."}, "[3]": {"tested_on": "Ramos tumors", "experiment": "Ramos tumor xenograft in nude mice", "type": "in vivo, mouse", "method": "Mouse tumor xenograft studies exploring combination therapies were performed using nude mice (Harlan) and Ramos or Daudi human tumor lines. Ramos or Daudi tumor cells were grown in T150 flasks in IMDM/10% FBS until they reached 80% confluency. Five million (5×10^6) cells were used as a tumor inoculum per mouse. Cells were injected subcutaneously in the right flank using PBS in a total volume of 0.1 ml or 5.0×1 0^7/ml. Nude mice were allowed to develop tumors and sorted into groups based on tumor size/volume. For each treatment group, 12 mice with a mean tumor volume of approximately 222 mm^3 (range =152-296mm^3) were used. Some mean tumor volumes ranging from 237-251 mm^3 were also used. […] Tumor volume was measured daily with calipers until completion of the experiment (sacrifice or regression).\nMouse tumor xenograft studies were performed using nude mice (Harlan) and Ramos or Daudi human tumor lines. Three different studies were performed based on tumor type and tumor size at the time of treatment with the TRU-016 or other test reagent. Ramos or Daudi tumor cells were grown and (5×10^6) cells were injected subcutaneously in the right flank to inoculate each treated mouse with the tumor. Nude mice were allowed to develop tumors and sorted into groups based on tumor size/volume. In the first study, for each treatment group, 12 mice with a mean tumor volume of 155-237 mm^3 were used. […] Tumor volume was measured daily with calipers until completion of the experiment (sacrifice or regression).\nRamos and Daudi tumor cells were separately grown and (5×10^6) cells were injected subcutaneously in the right flank of mice to initiate the formation of mouse tumor xenografts. After tumor development, mice were sorted into groups based on tumor size/volume (day 0). […] Tumor volume was blindly measured three times weekly with calipers until completion of the experiment (sacrifice or regression)."}, "[4]": {"tested_on": "CD19+ primary CLL B cells", "experiment": "tyrosine phosphorylation, 2D gel anti-phosphotyrosine immunoblot", "type": "cell-based, human", "settings": "5 ug/ml, 10 minutes, then crosslinker 25 ug/ml 5 minutes, FIG. 29", "method": "Freshly isolated CD19+ cells (−50−100×106) from CLL patients were suspended at a concentration of 5×10^6/ml PBS. Cells were then incubated for 10 minutes at 37° C., 5% CO2, with control, trastuzumab (herceptin), or TRU-016 at a final concentration of 5 ug/ml. Cells were spun down, supernatant was removed, and cells were resuspended in fresh PBS of initial volume. Goat anti-human Fc fragment specific crosslinker (25 ug/ml) was added and cells were incubated for an additional 5 minutes. Cells were again spun down, supernatant was removed, and cells were lysed in 1 ml of RIPA lysis buffer with protease and phosphatase inhibitors (10 mM Tris, ph7.4, 150 mM NaCl,1% Triton X-100, 1% deoxycholic acid, 0.1% SDS and 5 mM EDTA all final concentrations. Sigma protease inhibitor cocktail cat#P-8340; Sigma phosphatase inhibitor cocktail: serine/threonine phosphatase inhibitor cocktail pat#P-2850; and tyrosine phosphatase inhibitor cat#P-5726;PMSF (100 mM) were all used. The inhibitors were added to the lysis buffer immediately prior to use at a 1:100 dilution. Protein concentration in the lysates was quantified by the bicin choninic acid (BCA) method (Pierce, Rockford, Ill.). The control arid treated protein samples (SOug total protein) were separated by two-dimensional gel electrophoresis (pH Range 3-10) (1st Dimension) and 10% SDS-PAGE (2nd Dimension). […]"}}, "data": [{"substance": "G28-1 scFv VH11S(SSC—P)H WCH2 WCH3 [TRU-016]", "values": [{"measurement": "% of annexin V positive-PI negative cells", "setting": "[1]; 8.5% before", "result": 19.7, "unit": "%"}, {"measurement": "% of annexin V-PI double positive cells", "setting": "[1]; 11.3% before", "result": 32.8, "unit": "%"}, {"measurement": "depletion of B lymphocytes compared to T lymphocytes", "setting": "[2]", "result": "capable of specific depletion of CD37 positive B lymphocytes"}, {"measurement": "long-term complete regression of tumors (tumor regression rate)", "setting": "[3]; Ramos tumors, 200 μg, pooled data from 3 experiments", "result": 20, "unit": "%"}, {"measurement": "average tumor volume after treatment", "setting": "[3]; Ramos, 200 μg/mouse IV days 0, 2, 4, 6, 8, versus huIgG", "result": "smaller than that observed using the negative control (huIgG)"}, {"measurement": "Median Survival Time", "setting": "[3]; established Ramos tumors, 200 μg", "result": 16, "unit": "days"}, {"measurement": "Percentage of Tumor- Free Mice at Day 90", "setting": "[3]; established Ramos tumors, 200 μg, IV days 0, 2, 4, 6, 8", "result": 20, "unit": "%"}, {"measurement": "survival time / median survival time", "setting": "[3]; established Ramos tumors, combination vs TRU-016 p=0.028, vs rituximab p=0.045", "result": "inhibition of tumor growth and improved survival times equivalent to rituximab"}, {"measurement": "tumor growth and median survival", "setting": "[3]; mice with the smaller Ramos tumors", "result": "inhibition of tumor growth and increased median survival times"}, {"measurement": "tyrosine phosphorylation", "setting": "[4]", "result": "induced tyrosine phosphorylation"}]}]}
